{
  "source": "patent US20090197957A1",
  "about": "“Methods and compositions for the treatment of pain” (Nuon Therapeutics, Inc., priority 2005, published 2009)",
  "key": {"[1]": {"test_system": "acetic acid-induced writhing", "assay": "Analgesia, acetic acid writhing in mice (Example 3)", "assay_type": "in vivo, mouse", "settings": "for No. of Writhing Average: group of 5 mice; for % Inhibition: relative to vehicle control; for No. of Writhing Individual: single mice", "description": "3-Hydroxyanthranilic acid was evaluated for possible analgesic activity in mouse acetic acid-induced pain response assay.\n3-Hydroxyanthranilic acid was purchased from Sigma (USA) by MDS Pharma Services-Taiwan Ltd. and administered orally at the doses of 400, 200 and 100 mg/kg for analgesia, acetic acid-induced writhing assay. 2% Tween 80 was used as the vehicle.\nMale CD-1 (Crl.) mice provided by BioLasco Taiwan (under Charles River Laboratories Technology Licensee) were used. Space allocation for 10 animals was 29×18×13 cm. All animals were maintained in a controlled temperature (23° C.-24° C.) and humidity (60%-70%) environment with 12 hours light dark cycles for at least one week in MDS Pharma Services—Taiwan Laboratory prior to use. Free access to standard lab chow for Mice (LabDiet Rodent Diet, PMI Nutrition International, USA) and tap water was granted. All aspects of this work including housing, experimentation and disposal of animals were performed in general accordance with the Guide for the Care and Use of Laboratory Animals (National Academy Press, Washington, D.C., 1996).\n(§1) Test substance was administered orally to groups of 5 CD-1 (Crl.) derived male or female mice weighing 24±2 g, 2 hour before injection of acetic acid (0.5%, 20 ml/kg IP). Reduction in the number of writhes by 50 percent or more (≧50%) per group of animals observed during the 5 to 10 minute period after acetic acid administration, relative to a vehicle-treated control group, indicates possible analgesic activity.\nTest substance was administered orally to groups of 5 mice 1 hour before injection of 0.5% Acetic Acid (20 ml/kg IP). The number of writhing per group of animals observed during the 5 to 10 minute period after acetic acid challenge was observed. Reduction in the number of writhing by 50 percent or more (≧50%) relative to the vehicle-treated control group indicates possible analgesic activity."}, "[2]": {"test_system": "astrocytes in the spinal cord (GFAP)", "assay": "GFAP immunohistochemistry of lumbar spinal cord (astrocytic activation)", "assay_type": "in vivo, mice", "settings": "10 days following onset of arthritis; 3,4-DAA 200 mg/kg/day, dexamethasone 0.5 mg/kg/2 days", "description": "FIG. 6 is an image depicting that 3,4-DAA inhibits mechanical and thermal allodynia, and inhibits astrocytic activation in arthritic mice. Mechanical (a) and thermal (b) allodynia, and paw swelling (c) and clinical score (d) were assessed in naïve mice on the day of arthritis onset, and up to 10 days following therapy with 200 mg/kg 3,4-DAA, […] dexamethasone, or vehicle. […] Whilst 3,4-DAA therapy reduced astrocytic activation (bottom right panel) dexamethasone had no action on GFAP levels (bottom left panel). Quantification of the number of hyper-plastic astrocytes in the spinal cord 10 days following onset of arthritis was performed (f).\nUpon completion of treatment, animals were sacrificed by CO2 exposure, and the lumbar spinal cord was excised, fixed (10% formalin), and embedded in paraffin. Immunohistochemistry was then performed to detect astrocytes with a rabbit-anti GFAP (glial fibrillary acidic protein) antibody (Dako Cytomation, Glostrup, Denmark). Antibody detection was performed using an ABC peroxidase method (Vector Laboratories, High Wycombe, Bucks., U.K.) (32).\nAstrocytic activation has been proposed to be important for the generation of both inflammatory and neuropathic hypersensitivity [Bao et al., 2001, Neuroreport 12:3905-3908; Watkins et al., 2001, Trends Neurosci. 24:450-455]. Astrocytic activation in the spinal cord in CIA was therefore assessed. […]"}, "[3]": {"test_system": "acetic acid-induced writhing", "assay": "Analgesia, acetic acid writhing in mice (Assay #503900, Example 1)", "assay_type": "in vivo, mouse", "settings": "for No. of Writhing Average: group of 5 mice; for % Inhibition: relative to vehicle control; for No. of Writhing Individual: single mice", "description": "Tranilast was evaluated for possible analgesic activity in the mouse acetic acid-induced writhing model. Tranilast at 100, 200 and 400 mg/kg was administered orally (PO) 1 hour before intraperitoneal injection of acetic acid (0.5%, 20 ml/kg).\nTranilast, provided by Angiogen Pharmaceuticals Pty. Ltd., was dissolved in 1% NaHCO3 (heated to 70° C.) and administered orally at doses of 100, 200 and 400 mg/kg at 60 minutes before acetic acid injection. The dosing volume was 10 ml/kg.\nMale CD-1 (Crl.) derived mice weighing 24±2 g were provided by BioLasco Taiwan (under a Charles River Laboratories Technology licensee). Space allocation for 10 animals was 29×18×13 cm. Mice were housed in APEC^R cages. All animals were maintained in a controlled temperature (22° C.-24° C.) and humidity (60%-70%) environment with 12 hours light dark cycles for at least one week in MDS Pharma Services—Taiwan Laboratory prior to use. Free access to standard lab chow for mice (Lab Diet, Rodent Diet, PMI Nutrition International, USA) and tap water was granted. All aspects of this work including housing, experimentation and disposal of animals were performed in general accordance with the Guide for the Care and Use of Laboratory Animals (National Academy Press, Washington, D.C., 1996).\nas §1, with “administered PO (400, 200 and 100 mg/kg)” for “administered orally”, “weighing 22±2 g one” for “weighing 24±2 g, 2”, “to the” for “to a”\nTest substance was administered orally to groups of 5 mice 60 minutes before injection of Acetic Acid (0.5%, 20 ml/kg IP). The number of writhing per group of animals observed during the 5 to 10 minutes period after acetic acid challenge was observed. Reduction in the number of writhings by 50 percent or more (≧50%) relative to the vehicle-treated control group indicates possible analgesic activity."}, "Cyclooxygenase COX-1": {"biological_target": "Cyclooxygenase COX-1 (Homo sapiens, UniProt P23219)", "sequence (P23219 24-599)": "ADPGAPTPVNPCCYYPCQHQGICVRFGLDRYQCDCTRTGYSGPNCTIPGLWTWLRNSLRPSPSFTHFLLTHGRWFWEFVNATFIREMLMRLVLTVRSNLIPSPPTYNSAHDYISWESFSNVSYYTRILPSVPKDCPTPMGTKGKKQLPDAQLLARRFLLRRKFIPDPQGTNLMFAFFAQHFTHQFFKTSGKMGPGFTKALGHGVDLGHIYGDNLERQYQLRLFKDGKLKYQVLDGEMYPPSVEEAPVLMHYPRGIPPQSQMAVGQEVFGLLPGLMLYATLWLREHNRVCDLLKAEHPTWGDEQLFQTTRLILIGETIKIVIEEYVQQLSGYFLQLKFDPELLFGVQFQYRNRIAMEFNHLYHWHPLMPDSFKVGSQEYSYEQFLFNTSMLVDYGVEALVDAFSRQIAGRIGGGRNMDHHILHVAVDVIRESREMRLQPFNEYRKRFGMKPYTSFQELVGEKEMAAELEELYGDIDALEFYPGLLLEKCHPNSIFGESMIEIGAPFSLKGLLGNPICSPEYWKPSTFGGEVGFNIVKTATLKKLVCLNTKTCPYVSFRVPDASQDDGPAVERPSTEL", "assay": "biochemical", "description": "Methods employed in this study have been adapted from the scientific literature to maximize reliability and reproducibility. […] Assays were performed under conditions described in the accompanying “Methods” section of this report. The literature references for each assay are in the “Literature References” section. If either of these sections were not originally requested with the accompanying report, please contact us at the number below for a printout of either of these report sections.\nBiochemical assay results are presented as the percent inhibition of specific binding or activity throughout the report."}, "[4]": {"settings": "100 mg/kg PO, 60 minutes before acetic acid"}, "[5]": {"settings": "200 mg/kg PO, 60 minutes before acetic acid"}, "[6]": {"settings": "400 mg/kg PO, 60 minutes before acetic acid"}},
  "note": "“And” between values parts separate entries of the source, which are not always exact repeats. Equal values may be shown once.",
  "data": [
    {"molecule": "Nc1c(O)cccc1C(=O)O", "note": "[3-Hydroxyanthranilic acid]", "values": [
      {"measurement": "No. of Writhing Average", "setting": "[1]; 100 mg/kg PO", "result": 13},
      {"measurement": "% Inhibition", "setting": "[1]; 100 mg/kg PO", "result": 0, "unit": "%"},
      {"measurement": "No. of Writhing Individual", "setting": "[1]; 100 mg/kg PO", "result": "18 and 12 (2×) and 13 and 10"},
      {"measurement": "No. of Writhing Average", "setting": "[1]; 200 mg/kg PO", "result": 12},
      {"measurement": "% Inhibition", "setting": "[1]; 200 mg/kg PO", "result": 8, "unit": "%"},
      {"measurement": "No. of Writhing Individual", "setting": "[1]; 200 mg/kg PO", "result": "16 and 9 and 12 and 10 and 15"},
      {"measurement": "No. of Writhing Individual", "setting": "[1]; 400 mg/kg PO before acetic acid (0.5%, 20 ml/kg IP), 5 to 10 minute period", "result": "5 (2×) and 6 and 14 and 12"},
      {"measurement": "No. of Writhing Average", "setting": "[1]; 400 mg/kg PO", "result": 8},
      {"measurement": "% Inhibition", "setting": "[1]; 400 mg/kg PO", "result": 38, "unit": "%"},
      {"measurement": "significant analgesic activity (≧50% inhibition of writhing relative to vehicle)", "setting": "[1]; 400, 200 and 100 mg/kg PO", "result": "did not demonstrate any significant analgesic activity"}
    ]},
    {"molecule": "COc1ccc(/C=C/C(=O)Nc2ccccc2C(=O)O)cc1OC", "note": "[Tranilast, 2-[[3-(3,4-dimethoxyphenyl)-1-oxo-2-propenyl]amino]benzoic acid]", "values": [
      {"measurement": "number of activated astrocytes in the spinal cord (GFAP staining)", "setting": "[2]", "result": "significantly reduced"},
      {"measurement": "No. of Writhing Average", "setting": "[3]; [4]", "result": 15},
      {"measurement": "% Inhibition", "setting": "[3]; [4]", "result": 12, "unit": "%"},
      {"measurement": "No. of Writhing Individual", "setting": "[3]; [4]", "result": "19 and 15 and 16 and 17 and 9"},
      {"measurement": "No. of Writhing Average", "setting": "[3]; [5]", "result": 13},
      {"measurement": "% Inhibition", "setting": "[3]; [5]", "result": 24, "unit": "%"},
      {"measurement": "No. of Writhing Individual", "setting": "[3]; [5]", "result": "10 (2×) and 19 and 9 and 16"},
      {"measurement": "No. of Writhing Individual", "setting": "[3]; 400 mg/kg PO, 60 minutes before acetic acid (0.5%, 20 ml/kg IP), 5 to 10 minute period", "result": "3 and 16 and 2 and 10 and 14"},
      {"measurement": "No. of Writhing Average", "setting": "[3]; [6]", "result": 9},
      {"measurement": "% Inhibition", "setting": "[3]; [6]", "result": 47, "unit": "%"},
      {"measurement": "inhibition of acetic acid-induced writhing across doses", "setting": "[3]; 100, 200 and 400 mg/kg PO", "result": "dose-dependent inhibition"},
      {"measurement": "effect on the activity of the COX-1 enzyme", "setting": "Cyclooxygenase COX-1", "result": "no effect"},
      {"measurement": "inhibition at 10 µM", "setting": "Cyclooxygenase COX-1", "result": -2, "unit": "%"}
    ]}
  ]
}
